Source: ChEMBL document CHEMBL1149294, “A novel class of inhibitors of peptide deformylase discovered through high-throughput screening and virtual ligand screening” (J Med Chem, 2004)
Calls of active or inactive are those of the source. The rule behind the calls is not given here.

Legend:
[1] = target: T1, Peptide deformylase (Escherichia coli, UniProt Q9JN24); assay: Inhibition of Escherichia coli PDF
T1 sequence (Q9JN24 whole entry): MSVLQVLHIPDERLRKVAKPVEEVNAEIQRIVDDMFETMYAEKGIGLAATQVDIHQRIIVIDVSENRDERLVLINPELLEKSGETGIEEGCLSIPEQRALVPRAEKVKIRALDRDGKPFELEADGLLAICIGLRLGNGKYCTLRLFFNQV

[2] = test system: Glycine max; assay: Inhibition of soybean PDF using PDF/FDH coupled spectrophotometric assay

Row | Structure (SMILES) | IC50 [1] [µM] | Activity [2]
1 | Cc1cc(/C=C2\SC(=S)N(CCCCCC(=O)O)C2=O)c(C)n1-c1ccccc1 | > 30 | –
2 | Cc1ccc(-c2nn(-c3ccccc3)cc2/C=C2\SC(=S)N(CC(=O)O)C2=O)cc1 | > 30 | inactive
3 | O=C(O)CCCCCN1C(=O)/C(=C/c2c[nH]c3ccccc23)SC1=S | > 30 | –
4 | CC(/C=C1\SC(=S)N(CCCCCC(=O)O)C1=O)=C\c1ccccc1 | > 30 | –
5 | Cc1nn(CCC#N)cc1/C=C1\SC(=S)N(CCCCCC(=O)O)C1=O | > 30 | –
6 | O=C(O)CCCCCN1C(=O)/C(=C/c2cn(-c3ccccc3)nc2-c2cccs2)SC1=S | > 30 | –
7 | O=C(O)CCN1C(=O)/C(=C/c2cn(-c3ccccc3)nc2-c2ccccc2)SC1=S | > 30 | inactive
8 | Cc1nn(-c2ccccc2)c(Cl)c1/C=C1\SC(=S)N(CCCCCC(=O)O)C1=O | > 30 | –
9 | O=C(O)CCCCCN1C(=O)/C(=C/c2ccc(F)cc2)SC1=S | > 30 | –
10 | O=C(O)CCCCCN1C(=O)/C(=C/c2ccc(-c3ccc(Cl)c(Cl)c3)o2)SC1=S | > 30 | –
11 | CCOc1cc(/C=C2\SC(=S)N(CCCCCC(=O)O)C2=O)ccc1O | > 30 | –
12 | O=C(O)CCCCCN1C(=O)/C(=C/c2cn(-c3ccccc3)nc2-c2ccccc2)SC1=S | > 30 | –
13 | COc1ccc(/C=C2\SC(=S)N(CCCCCC(=O)O)C2=O)cc1Br | > 30 | –
14 | Cc1cc(/C=C2\SC(=S)N(CCCCCC(=O)O)C2=O)c(C)n1-c1ccc(Br)cc1 | > 30 | –
15 | Cc1ccc(-c2nn(-c3ccccc3)cc2/C=C2\SC(=S)N(CCCCCC(=O)O)C2=O)o1 | > 30 | –
16 | COc1ccccc1/C=C1\SC(=S)N(CCCCCC(=O)O)C1=O | > 30 | –
17 | COC(=O)CCCCCN1C(=O)/C(=C/c2cc(C)n(-c3ccccc3)c2C)SC1=S | – | inactive
